Values after ≈ are worked out from the molar mass of the structure shown. Peptide text beside a SMILES is read from it. * marks the point of attachment. Cbz = O=C(OCc1ccccc1)*
What was measured:
[1] = system: human 11β-hydroxysteroid dehydrogenases (11β-HSD1); design: method as in PMID 19879607; conditions: cited from earlier work
[2] = system: Bacillus cereus; design: method as in ref 17 = [17];  L.V. Levchenko S.V. O’Neill D.P. Advances in methods and algorithms in a modern quantum chemistry program; conditions: cited from earlier work
[3] = system: Staphylococcus aureus; design: method as in ref 17 =  L.V. Levchenko S.V. O’Neill D.P. Advances in methods and algorithms in a modern quantum chemistry program; conditions: cited from earlier work
[4] = Cytotoxicity assay (CCK-8) on spleen cells; type: cell-based; conditions: female, fresh spleen cells (splenic lymphocytes), BALB/c mouse spleen cells
Procedure: (§1) Female BALB/c mice were sacrificed by cervical dislocation, and the spleens were removed aseptically. Mononuclear cell suspensions were prepared after cell debris and clumps were removed. Erythrocytes were depleted with ammonium chloride buffer solution. Lymphocytes were washed and resuspended in RPMI-1640 medium supplemented with 10% FBS, penicillin (100 U/mL), and streptomycin ([…]).
Cytotoxicity was tested with Cell Counting Kit-8 (CCK-8) assay. Briefly, fresh spleen cells were gained from female BALB/c mice (18–20 g). Spleen cells (1 ×10^6 cells) were seeded in triplicate in 96-well flat plates, then cultured at 37 °C for 48 h in 96-well flat plates in the presence or absence of various concentrations of compounds, as well as in a humidified and 5% CO2-containing incubator. A certain amount of CCK-8 was added to each well at the final 8–10 h of culture. At the end of culturing, we measured the OD values with a microplate reader (Bio-Rad 650, Hercules, CA, USA) at 450 nm. […] The cytotoxicity of each compound was expressed as the concentration of compound that reduced cell viability to 50% (CC50).

[5] = system: Escherichia coli; design: L.V. Levchenko S.V. O’Neill D.P. Advances in methods and algorithms in a modern quantum chemistry program; conditions: cited from earlier work
[6] = system: Micrococcus luteus; design: L.V. Levchenko S.V. O’Neill D.P. Advances in methods and algorithms in a modern quantum chemistry program; conditions: cited from earlier work
[7] = system: human 11β-HSD2; design: method as in PMID 19879607; conditions: cited from earlier work
[8] = system: LPS-induced B-cell proliferation (spleen cells); assay: LPS-induced B-cell proliferation ([3H]-thymidine uptake); type: cell-based; conditions: Mus musculus, spleen cells stimulated with 10 µg/mL LPS
Procedure: as §1
(§2) Fresh spleen cells were obtained from female BALB/c mice (18–20 g). The 5 × 10^5 spleen cells were cultured at the same conditions as those mentioned above. The cultures, in the presence or absence of various concentrations of compounds, were stimulated with 5 µg/mL of concanavalin A (ConA) or 10 µg/mL of lipopolysaccharide (LPS) to induce T-cells’ or B-cells’ proliferative responses, respectively. Proliferation was assessed in terms of uptake of [^3H]-thymidine during 8 h of pulsing with 25 µL/well of [^3H]-thymidine, and then cells were harvested onto glass fiber filters. The incorporated radioactivity was counted using a Beta scintillation counter (MicroBeta Trilux; PerkinElmer Life Sciences, Waltham, MA, USA). Cells treated without any stimuli were used as a negative control. The immunosuppressive activity of each compound was expressed as the concentration of compound that inhibited ConA-induced T-cell proliferation or LPS-induced B-cell proliferation to 50% (IC50) of the control value. […]

[9] = system: ConA-induced T-cell proliferation (spleen cells); assay: ConA-induced T-cell proliferation ([3H]-thymidine uptake); type: cell-based; conditions: Mus musculus, spleen cells stimulated with 5 µg/mL ConA
Procedure: as §1, §2

[10] = system: human embryonic kidney 293 cell; design: method as in PMID 26669092; conditions: read-out: IC50 against human embryonic kidney 293 cell; cited from earlier work
[11] = system: NO production in LPS-activated RAW264.7 macrophages; assay: Nitric oxide production in LPS-activated RAW264.7 macrophages; type: cell-based, murine; conditions: Mus musculus, positive control, 1 μg/mL LPS, 18 h
Procedure: Murine monocytic RAW264.7 macrophages were dispensed into 96-well plates (2 × 10^5 cells/well) containing RPMI-1640 medium (HyClone) with 10% FBS under a humidified atmosphere with 5% CO2 at 37 °C. After 24 h of preincubation, cells were treated with serial dilutions of the test compounds, up to a maximum concentration of 40 μM, in the presence of 1 μg/mL LPS for 18 h. The compounds were dissolved in DMSO and further diluted in the medium to produce different concentrations. NO production in each well was assessed by adding 100 μL of Griess reagent (reagent A and reagent B, Sigma, St. Louis, MO, USA) to 100 μL of each supernatant from the LPS-treated (Sigma) or LPS- and compound-treated cells in triplicate. After a 5 min incubation, the absorbance of samples was measured at 570 nm with a 2104 Envision multilabel plate reader (Perkin-Elmer Life Sciences, Inc., Boston, MA, USA).

Row | SMILES | IC50 against human 11β-HSD1 [1] [µg/mL] | CC50 at 48 h [4] [µM] | IC50 against human 11β-HSD2 [7] [µg/mL] | IC50 [8] [µM] | further results
1 | CC1=CCC2C(C)(C)C(O)CCC2(C)C1CC12OC1C(O)C(CO)=CC2O (stereo not shown) [craterellin B] | 3.5 (≈ 9.25 µM) | – | – | – | –
2 | CC1=CC[C@H]2C(C)(C)CCC[C@]2(C)[C@H]1C[C@@]12O[C@@H]1[C@H](O)C(CO)=C[C@H]2O [Compound 3, craterellin A] | 9.1 (≈ 25.1 µM) | > 40 | 1.5 (≈ 4.14 µM) | 20 ± 1.38 | MIC against Bacillus cereus [2]: 3.12 µM (≈ 1.13 µg/mL); MIC against Staphylococcus aureus [3]: 6.25 µM (≈ 2.27 µg/mL); MIC against Escherichia coli [5]: 6.25 µM (≈ 2.27 µg/mL); MIC against Micrococcus luteus [6]: 6.25 µM (≈ 2.27 µg/mL); IC50 [9]: 9.07 ± 0.644 µM
3 | CC1=CCC2C(C)(C)CCCC2(C)C1CC12OC1C(=O)C(Cc1c(O)cc(CC(C)O)oc1=O)=CC2O (stereo not shown) [Compound 1, craterodoratin T] | – | > 40 | – | 5.52 ± 0.452 | –
4 | C=C1[C@@H](O)[C@H]2O[C@@]2(C[C@H]2C(C)=CC[C@H]3C(C)(C)CCC[C@]23C)[C@H](O)[C@H]1O [craterellin C] | 14.8 (≈ 40.8 µM) | – | 25.4 (≈ 70.1 µM) | – | IC50 [10]: 50.9 µM
5 | CC(C)C[C@@H](C=O)NC(=O)[C@H](CC(C)C)NC(=O)[C@H](CC(C)C)NC(=O)OCc1ccccc1 [MG-132] (Cbz-Leu-Leu-Leu-aldehyde) | – | – | – | – | IC50 [11]: 0.2 µM

From publication PMC9963684, “Meroterpenoids with Immunosuppressive Activity from Edible Fungus Craterellus odoratus” (Molecules, 2023)
